Biological target: Mammalian DNA-PK (Homo sapiens, UniProt P78527)
Assay: DNA-PK inhibition assay (ELISA of p53 Ser15 phosphorylation of GST-p53N66)
Format: biochemical, Mammalian (isolated from HeLa cell nuclear extract)
Settings: DNA-PK from HeLa nuclear extract; mean value; read-out: mean IC50
Description: In order to assess the inhibitory action of the compounds against DNA-PK in vitro, the following assay was used to determine IC50 values.
To the assay mix, varying concentrations of inhibitor (in DMSO at a final concentration of 1%) were added. After 10 minutes of incubation, ATP was added to give a final concentration of […] along with a 30 mer double stranded DNA oligonucleotide (final concentraion of 0.5 ng/ml) to initiate the reaction. After 1 hour with shaking, 150 μl of phosphate buffered saline (PBS) was added to the reaction and 5 μl then transferred to a 96 well opaque white plate containing 45 μl of PBS per well where the GSTp53N66 substrate was allowed to bind to the wells for 1 hour. To detect the phosphorylation event on the serine 15 residue of p53 elicited by DNA-PK a p53 phosphoserine-15 antibody (Cell Signaling Technology) was used in a basic ELISA procedure. An anti-rabbit HRP conjugated secondary antibody (Pierce) was then employed in the ELISA before the addition of chemiluminescence reagent. (NEN Renaissance) to detect the signal as measured by chemiluminescent counting via a TopCount NXT (Packard).
The enzyme activity for each compound is then calculated using the following equation: […]
The results are discussed below as IC50 values (the concentration at which 50% of the enzyme activity is inhibited). These are determined over a range of different concentrations, normally from 10 μM down to 0.001 μM. Such IC50 values are used as comparative values to identify increased compound potencies.

Compound: O=c1cc(N2CCOCC2)oc2c(-c3ccc(CN4CCCCCC4)c4c3sc3ccccc34)cccc12 [4x]
- IC50: 1910 nM

Compound: O=c1cc(N2CCOCC2)oc2c(-c3ccc(CN4CCC(C(F)(F)F)CC4)c4c3sc3ccccc34)cccc12 [4ao]
- IC50: 5430 nM

Compound: O=c1cc(N2CCOCC2)oc2c(-c3ccc(CN4CCC(O)CC4)c4c3sc3ccccc34)cccc12 [4j]
- IC50: 508 nM

Compound: CC(CN(C)C)NCc1ccc(-c2cccc3c(=O)cc(N4CCOCC4)oc23)c2sc3ccccc3c12 (stereo not shown) [4bk]
- IC50: 32 nM

Compound: N#Cc1cccn1NCc1ccc(-c2cccc3c(=O)cc(N4CCOCC4)oc23)c2sc3ccccc3c12 [4cm]
- IC50: 956 nM

Compound: CCN1CCCC1CNCc1ccc(-c2cccc3c(=O)cc(N4CCOCC4)oc23)c2sc3ccccc3c12 (stereo not shown) [4cn]
- IC50: 57.3 nM

Compound: O=c1cc(N2CCOCC2)oc2c(-c3ccc(CNCCCN4CCCC4)c4c3sc3ccccc34)cccc12 [4ba]
- IC50: 17.3 nM

Compound: CN1CCCC(NCc2ccc(-c3cccc4c(=O)cc(N5CCOCC5)oc34)c3sc4ccccc4c23)C1 (stereo not shown) [4ck]
- IC50: 16.1 nM

Compound: COC[C@H]1CCCN1Cc1ccc(-c2cccc3c(=O)cc(N4CCOCC4)oc23)c2sc3ccccc3c12 [4bf]
- IC50: 717 nM

Compound: O=c1cc(N2CCOCC2)oc2c(-c3ccc(CN4CCSCC4)c4c3sc3ccccc34)cccc12 [4bz]
- IC50: 257 nM

Compound: C[C@@H]1CN(Cc2ccc(-c3cccc4c(=O)cc(N5CCOCC5)oc34)c3sc4ccccc4c23)C[C@H](C)O1 [4q]
- IC50: 83.3 nM

Compound: O=c1cc(N2CCOCC2)oc2c(-c3ccc(CN4CCC(F)(F)C4)c4c3sc3ccccc34)cccc12 [4ca]
- IC50: 1010 nM

Compound: CC(NCc1ccc(-c2cccc3c(=O)cc(N4CCOCC4)oc23)c2sc3ccccc3c12)c1nccs1 (stereo not shown) [4bb]
- IC50: 777 nM

Compound: O=c1cc(N2CCOCC2)oc2c(-c3ccc(CN4CCCN(CCO)CC4)c4c3sc3ccccc34)cccc12 [4ad]
- IC50: 3.86 nM

Compound: C[C@@H]1COCCN1Cc1ccc(-c2cccc3c(=O)cc(N4CCOCC4)oc23)c2sc3ccccc3c12 [4ak]
- IC50: 912 nM

Compound: CN(C)[C@@H]1CCN(Cc2ccc(-c3cccc4c(=O)cc(N5CCOCC5)oc34)c3sc4ccccc4c23)C1 [4bv]
- IC50: 2.05 nM

Compound: O=c1cc(N2CCOCC2)oc2c(-c3ccc(CNCc4ccccc4)c4c3sc3ccccc34)cccc12 [4b]
- IC50: 248 nM

Compound: CN(Cc1ccc(-c2cccc3c(=O)cc(N4CCOCC4)oc23)c2sc3ccccc3c12)Cc1cncn1C [4cd]
- IC50: 68.4 nM

Compound: O=c1cc(N2CCOCC2)oc2c(-c3ccc(CNCc4ccccn4)c4c3sc3ccccc34)cccc12 [4ci]
- IC50: 177 nM

Compound: O=c1cc(N2CCOCC2)oc2c(-c3ccc(CN4CCCO4)c4c3sc3ccccc34)cccc12 [4as]
- IC50: 68.9 nM

Compound: COc1cccc(N2CCN(Cc3ccc(-c4cccc5c(=O)cc(N6CCOCC6)oc45)c4sc5ccccc5c34)CC2)c1 [4n]
- IC50: 975 nM

Compound: O=c1cc(N2CCOCC2)oc2c(-c3ccc(CN4CCC(CO)CC4)c4c3sc3ccccc34)cccc12 [4p]
- IC50: 96 nM

Compound: Cn1nccc1CNCc1ccc(-c2cccc3c(=O)cc(N4CCOCC4)oc23)c2sc3ccccc3c12 [4bl]
- IC50: 46.2 nM

Compound: O=c1cc(N2CCOCC2)oc2c(-c3ccc(CNCc4ccco4)c4c3sc3ccccc34)cccc12 [4bh]
- IC50: 222 nM

Compound: COc1ccc(N2CCN(Cc3ccc(-c4cccc5c(=O)cc(N6CCOCC6)oc45)c4sc5ccccc5c34)CC2C)cc1 (stereo not shown) [4o]
- IC50: 502 nM

Compound: CC1CC(C)CN(Cc2ccc(-c3cccc4c(=O)cc(N5CCOCC5)oc34)c3sc4ccccc4c23)C1 (stereo not shown) [4an]
- IC50: 1520 nM

Compound: CN(C)CC(C)(C)CNCc1ccc(-c2cccc3c(=O)cc(N4CCOCC4)oc23)c2sc3ccccc3c12 [4ay]
- IC50: 122 nM

Compound: COCC1CCCN1Cc1ccc(-c2cccc3c(=O)cc(N4CCOCC4)oc23)c2sc3ccccc3c12 (stereo not shown) [4at]
- IC50: 884 nM

Compound: O=c1cc(N2CCOCC2)oc2c(-c3ccc(CNC4CCS(=O)(=O)C4)c4c3sc3ccccc34)cccc12 (stereo not shown) [4bd]
- IC50: 125 nM

Compound: O=c1cc(N2CCOCC2)oc2c(-c3ccc(CN4CCNCC4)c4c3sc3ccccc34)cccc12 [4k]
- IC50: 7.14 nM

Compound: NC1CCCN(Cc2ccc(-c3cccc4c(=O)cc(N5CCOCC5)oc34)c3sc4ccccc4c23)C1 (stereo not shown) [4cq]
- IC50: 36.1 nM
